Reference: patent US10689423B2, “CTLA4-binding protein peptide-linker masks” (City of Hope, priority 2015, dated 2020)
Bridge positions count the residues as written; N and C are the ends. Peptide text beside a SMILES is read from it.

What was measured:
Lcn2-Fc = experiment: Phage competition ELISA of surface-bound peptides on immobilized Lcn2-Fc; assay type: binding; settings: compared to Lcn2-Fc pre-complexed with CTLA4-Fc or PBS control
Text: FIGS. 2A and 2B: Identification and characterization of a peptide (CTLA-4 binding domain masking peptide) blocking binding of mLcn2 (CTLA-4 binding domain) to CTLA-4. […] FIG. 2B is a graph showing surface plasmon resonance traces of analyte mLcn2-Fc flowed over ligand Peptide 16 immobilized to a CM5 chip.
FIG. 10B: ELISA results of bacteriophage library after three rounds of enrichment. Wells in a 96-well plate were immobilized with mLcn2-Fc (left column), mLcn2-Fc pre-complexed with CTLA-4-Fc (middle column), or PBS (right column). Each condition was performed in triplicate.
FIGS. 12A-12D: 18 min substrate incubation. […] FIG. 12A is a graph showing Clone 1—YGLGFNF (SEQ ID NO:52); FIG. 12B is a graph showing Clone 2—RIDETLQ (SEQ ID NO:53); FIG. 12C is a graph showing Clone 3—FTPWPEA (SEQ ID NO:54); and FIG. 12D is a graph showing Clone 4—WPEWDLW (SEQ ID NO:55).
FIGS. 13A-13D: 18 min substrate incubation. […] FIG. 13A is a graph showing clone 6—EKWFRFM (SEQ ID NO:56); FIG. 13B is a graph showing clone 8—YLELMHS (SEQ ID NO:57); FIG. 13C is a graph showing clone 12—SVLPPFM (SEQ ID NO:58); FIG. 13D is a graph showing clone 16—WSPLPFM (SEQ ID NO:59).
(§1) The sequence of mLcn2 was obtained from the PDB, synthesized and produced in bacteria. Peptides that specifically bind to mLcn2 were identified using a cyclic 7-mer library. Positive leads were identified and sequencing of these hits indicated an overall pattern in the sequences. To further characterize the lead peptides and to ensure the peptides bound to the same site as CTLA, a competition ELISA was performed using all leads (FIG. 2A). Based on this analysis, two cyclic peptides were chosen, chemically synthesized, and characterized by SPR (FIG. 2B) and crystallography. Well diffracting crystals were obtained for both complexes (1.95 and 2.15 Å) and refined (R/Rfree of 18.0/22.5% and 16.5/18.5% and no Ramachandran outliers). […] Design of the linker was aided by examination of the crystal structure of lipocalin.

mLcn2 = target: T1, mLcn2 (Homo sapiens, UniProt P80188, A60R/C107S/D67H/D97E/E64D/F91S/G122D/H138Y/K145L/K154A/K66Q/K70N/K93H/L123K/L157I/L90I/M140V/N134D/P121G/Q148D/Q48H/Q69M/R101A/R150A/R92S/S147E/T165A/V146A/W99T/Y152F); experiment: SPR of analyte mLcn2 flowed over immobilized Peptide16; assay type: binding
T1 construct: made in house; host or cells: bacteria
Text: FIG. 14A: mLCN2 vs. Pep16. Surface plasmon resonance of analyte mLcn2 flowed over ligand Peptide16 immobilized to a CM5 chip. Representative results are shown from three independent experiments.
as §1

mLcn2-Fc = experiment: SPR of analyte mLcn2-Fc flowed over immobilized Peptide12; assay type: binding; settings: peptide immobilized on CM5 chip, three independent experiments
Text: FIG. 14B: mLCN2-Fc vs. Pep12. Surface plasmon resonance of analyte mLcn2-Fc flowed over ligand Peptide12 immobilized to a CM5 chip. Representative results are shown from three independent experiments.
as §1

[1] = most common major toxicity; cited from earlier work

| Compound | phage binding to immobilized Lcn2-Fc by ELISA (Lcn2-Fc) | further results |
| --- | --- | --- |
| CSCC[C@@H]1NC(=O)[C@H](Cc2ccccc2)NC(=O)[C@@H]2CCCN2C(=O)[C@H](CC(C)C)NC(=O)[C@@H]2CCCN2C(=O)[C@H](CO)NC(=O)[C@H](Cc2c[nH]c3ccccc23)NC(=O)[C@@H](N)CSSC[C@@H](C(=O)O)NC1=O [Peptide 16, CWSPLPFMC] (H-CWSPLPFMC-OH; disulfide 1-9) |  | Kd (mLcn2): 4.6 µM |
| CWPEWDLWC [Peptide 4] | increased binding to immobilized Lcn2-Fc |  |
| CSVLPPFMC [Peptide 12] | increased binding to immobilized Lcn2-Fc | Kd (mLcn2-Fc): 3.4 µM |
| CYGLGFNFC [Peptide 1] | increased binding to immobilized Lcn2-Fc |  |
| ipilimumab |  | patients affected by enterocolitis [1]: approximately 20% |

Now from value to compound, other results behind:

| phage binding to immobilized Lcn2-Fc by ELISA (Lcn2-Fc) | Compound | further results |
| --- | --- | --- |
| increased binding to immobilized Lcn2-Fc | CRIDERLQC [Peptide 2] |  |
| increased binding to immobilized Lcn2-Fc | CEKWFRFMC [Peptide 6] |  |
| increased binding to immobilized Lcn2-Fc | CFTPWPEAC [Peptide 3] |  |
| increased binding to immobilized Lcn2-Fc | CYLELMHSC [Peptide 8] |  |
